Experimental findings from patent publication US10485747B2, “Hair-dye composition” (KAO CORPORATION, priority 2014, dated 2019) are described below.

This series is described as follows: pKa, dissociation state and displayed color of the azo dyes. It counts as physicochemical. The settings on record: proton dissociated. Here is the method:
Thus, in the hair dye composition of the present invention having pH (25° C.) of 7.5 to 12, almost 80% or more of these azo dyes are present in an anionic state where a proton(s) is dissociated.

With `NS(=O)(=O)c1ccc2nsc(/N=N/c3ccc(O)c(Cl)c3)c2c1` [Example A-2], the “color displayed when a proton(s) dissociates” value (from here on “color displayed”) was “blue”.

On to `Cn1nccc1/N=N/c1ccc(O)c(Cl)c1` [Example A-3], for which the “color displayed” value is “yellow”. Turning to `CSc1nsc(/N=N/c2ccc(O)c(Cl)c2)n1` [Example A-1], the “color displayed” value is given as “red”.
